Measured values: the NIST ThermoML archive (doi:10.1021/je060138i)
± gives the expanded uncertainty stated by the source.

What was measured:
[1] = for mass density: 293.15 K, 101.33 kPa, Liquid
[2] = refractive index (Na D-line) (dimensionless); details: 293.15 K; 101.33 kPa; Liquid; Standard Abbe refractometry

SMILES | Normal melting temperature ([1]; Crystal, visual observation) | mass density [1] | refractive index [2]
O=P1(O)OCC2(CO1)COP(=O)(O)OC2 (stereo unspecified) | 310.50 ± 4.4 °C |  | 
CC(=O)O [acetic acid] |  | 1050 ± 1 kg/m3 | 1.3718 ± 0.0008
CC(C)=O [acetone] |  | 790 ± 1 kg/m3 | 1.359 ± 0.0007
CC#N [acetonitrile] |  | 783 ± 1 kg/m3 | 1.343 ± 0.0007
ClCCl [dichloromethane] |  | 1321 ± 1 kg/m3 | 1.4237 ± 0.0007
CCOC(C)=O [ethyl acetate] |  | 899 ± 1 kg/m3 | 1.3719 ± 0.0007
